Data reported in ChEMBL document CHEMBL4414613, “Antibacterial 5α-Spirostane Saponins from the Fruit of Cordyline manners-suttoniae” (J Nat Prod, 2019).
Values after ≈ are worked out from the molar mass of the structure shown. Active and inactive are the calls of the source. The rule behind the calls is not given here.

Experiments:
[1] = tested on: Klebsiella pneumoniae; assay: Antibacterial activity against Klebsiella pneumoniae ATCC 12657 at 90 uM incubated for 24 hrs by microdilution assay; format: functional, organism-based
[2] = tested on: Staphylococcus aureus; assay: Antibacterial activity against Staphylococcus aureus ATCC 29247 at 90 uM incubated for 24 hrs by microdilution assay; format: functional, organism-based
[3] = tested on: NHDF; assay: Cytotoxicity against human HDF cells assessed as reduction in cell viability at 100 uM incubated for 7 days by CellTiter 96 aqueous one solution assay; format: functional, cell-based
[4] = tested on: Staphylococcus aureus; assay: Bactericidal activity against Staphylococcus aureus ATCC 25923 at 90 uM incubated for 24 hrs by microdilution assay; format: functional, organism-based
[5] = tested on: Pseudomonas aeruginosa; assay: Antibacterial activity against Pseudomonas aeruginosa ATCC 49189 at 90 uM incubated for 24 hrs by microdilution assay; format: functional, organism-based
[6] = tested on: Acinetobacter baumannii; assay: Bactericidal activity against Acinetobacter baumannii ATCC 17978 at 90 uM incubated for 24 hrs by microdilution assay; format: functional, organism-based
[7] = tested on: Staphylococcus aureus; assay: Bactericidal activity against Staphylococcus aureus ATCC 29247 at 90 uM incubated for 24 hrs by microdilution assay; format: functional, organism-based
[8] = tested on: Enterococcus faecium; assay: Bactericidal activity against Enterococcus faecium C15 at 90 uM incubated for 24 hrs by microdilution assay; format: functional, organism-based
[9] = tested on: Enterococcus faecium; assay: Bactericidal activity against Enterococcus faecium ATCC 35667 at 90 uM incubated for 24 hrs by microdilution assay; format: functional, organism-based
[10] = tested on: Klebsiella pneumoniae; assay: Bactericidal activity against Klebsiella pneumoniae ATCC 12657 at 90 uM incubated for 24 hrs by microdilution assay; format: functional, organism-based
[11] = tested on: Enterococcus faecium; assay: Antibacterial activity against Enterococcus faecium ATCC 35667 at 90 uM incubated for 24 hrs by microdilution assay; format: functional, organism-based
[12] = tested on: Klebsiella pneumoniae; assay: Bactericidal activity against Klebsiella pneumoniae ATCC 13883 at 90 uM incubated for 24 hrs by microdilution assay; format: functional, organism-based
[13] = tested on: Staphylococcus aureus; assay: Antibacterial activity against Staphylococcus aureus ATCC 25923 at 90 uM incubated for 24 hrs by microdilution assay; format: functional, organism-based
[14] = tested on: Klebsiella pneumoniae; assay: Antibacterial activity against Klebsiella pneumoniae ATCC 13883 at 90 uM incubated for 24 hrs by microdilution assay; format: functional, organism-based
[15] = tested on: Pseudomonas aeruginosa; assay: Bactericidal activity against Pseudomonas aeruginosa ATCC 49189 at 90 uM incubated for 24 hrs by microdilution assay; format: functional, organism-based
[16] = Selectivity ratio of IC50 for human HaCaT cells to IC50 for human HDF cells by CellTiter 96 aqueous one solution assay
[17] = tested on: Klebsiella aerogenes; assay: Antibacterial activity against Enterobacter aerogenes ATCC 13048 at 90 uM incubated for 24 hrs by microdilution assay; format: functional
[18] = tested on: Enterococcus faecium; assay: Antibacterial activity against Enterococcus faecium C15 at 90 uM incubated for 24 hrs by microdilution assay; format: functional, organism-based
[19] = tested on: Acinetobacter baumannii; assay: Antibacterial activity against Acinetobacter baumannii ATCC 17978 at 90 uM incubated for 24 hrs by microdilution assay; format: functional, organism-based
[20] = tested on: Acinetobacter baumannii; assay: Antibacterial activity against Acinetobacter baumannii ATCC 19606 at 90 uM incubated for 24 hrs by microdilution assay; format: functional, organism-based; settings: ATCC 19606 = CIP 70.34 = JCM 6841
[21] = tested on: Klebsiella aerogenes; assay: Bactericidal activity against Enterobacter aerogenes ATCC 13048 at 90 uM incubated for 24 hrs by microdilution assay; format: functional
[22] = tested on: Acinetobacter baumannii; assay: Bactericidal activity against Acinetobacter baumannii ATCC 19606 at 90 uM incubated for 24 hrs by microdilution assay; format: functional, organism-based; settings: ATCC 19606 = CIP 70.34 = JCM 6841
[23] = tested on: Enterobacter cloacae subsp. cloacae; assay: Bactericidal activity against Enterobacter cloacae ATCC 13047 at 90 uM incubated for 24 hrs by microdilution assay; format: functional
[24] = tested on: Pseudomonas aeruginosa; assay: Antibacterial activity against Pseudomonas aeruginosa ATCC 10145 at 90 uM incubated for 24 hrs by microdilution assay; format: functional, organism-based
[25] = tested on: Enterobacter cloacae subsp. cloacae; assay: Antibacterial activity against Enterobacter cloacae ATCC 13047 at 90 uM incubated for 24 hrs by microdilution assay; format: functional
[26] = tested on: HaCaT; assay: Cytotoxicity against human HaCaT cells assessed as reduction in cell viability at 100 uM incubated for 4 days by CellTiter 96 aqueous one solution assay; format: cell-based; settings: 96 h
[27] = tested on: Pseudomonas aeruginosa; assay: Bactericidal activity against Pseudomonas aeruginosa ATCC 10145 at 90 uM incubated for 24 hrs by microdilution assay; format: functional, organism-based
[28] = tested on: Staphylococcus aureus; assay: Antibacterial activity against Staphylococcus aureus ATCC 29247 incubated for 24 hrs by microdilution assay; format: functional
[29] = tested on: Staphylococcus aureus; assay: Bactericidal activity against Staphylococcus aureus ATCC 29247 up to 86.8 uM incubated for 24 hrs by microdilution assay; format: functional, organism-based
[30] = tested on: Enterococcus faecium; assay: Bactericidal activity against Enterococcus faecium C15 up to 86.8 uM incubated for 24 hrs by microdilution assay; format: functional, organism-based
[31] = tested on: Staphylococcus aureus; assay: Antibacterial activity against Staphylococcus aureus ATCC 25923 incubated for 24 hrs by microdilution assay; format: functional
[32] = tested on: HaCaT; assay: Cytotoxicity against human HaCaT cells assessed as reduction in cell viability incubated for 4 days by CellTiter 96 aqueous one solution assay; format: cell-based; settings: 96 h
[33] = tested on: Enterococcus faecium; assay: Antibacterial activity against Enterococcus faecium ATCC 35667 incubated for 24 hrs by microdilution assay; format: functional
[34] = tested on: Staphylococcus aureus; assay: Bactericidal activity against Staphylococcus aureus ATCC 25923 up to 86.8 uM incubated for 24 hrs by microdilution assay; format: functional, organism-based
[35] = tested on: NHDF; assay: Cytotoxicity against human HDF cells assessed as reduction in cell viability incubated for 7 days by CellTiter 96 aqueous one solution assay; format: functional, cell-based; settings: 168 h
[36] = tested on: Enterococcus faecium; assay: Bactericidal activity against Enterococcus faecium ATCC 35667 up to 86.8 uM incubated for 24 hrs by microdilution assay; format: functional, organism-based
[37] = tested on: Enterococcus faecium; assay: Antibacterial activity against Enterococcus faecium C15 incubated for 24 hrs by microdilution assay; format: functional
[38] = tested on: Enterococcus faecium; assay: Bactericidal activity against Enterococcus faecium C15 incubated for 24 hrs by microdilution assay; format: functional; settings: C15, 24 h
[39] = tested on: Staphylococcus aureus; assay: Bactericidal activity against Staphylococcus aureus ATCC 29247 incubated for 24 hrs by microdilution assay; format: functional; settings: ATCC 29247, 24 h
[40] = tested on: Enterococcus faecium; assay: Bactericidal activity against Enterococcus faecium ATCC 35667 incubated for 24 hrs by microdilution assay; format: functional; settings: ATCC 35667, 24 h
[41] = tested on: Staphylococcus aureus; assay: Bactericidal activity against Staphylococcus aureus ATCC 25923 incubated for 24 hrs by microdilution assay; format: functional; settings: ATCC 25923, 24 h

## C=C1CC[C@]2(OC1)O[C@H]1C[C@H]3[C@@H]4CC[C@H]5C[C@@H](O)C[C@@H](O[C@@H]6OC[C@H](O)[C@H](O)[C@H]6O)[C@]5(C)[C@H]4CC[C@]3(C)[C@H]1[C@@H]2C
[1]
  Activity: inactive
[2]
  Activity: inactive
[3]
  Activity: inactive
[4]
  Activity: inactive
[5]
  Activity: inactive
[6]
  Activity: inactive
[7]
  Activity: inactive
[8]
  Activity: inactive
[9]
  Activity: inactive
[10]
  Activity: inactive
[11]
  Activity: inactive
[12]
  Activity: inactive
[13]
  Activity: inactive
[14]
  Activity: inactive
[15]
  Activity: inactive
[16]
  Ratio IC50: 3 - 11
[17]
  Activity: inactive
[18]
  Activity: inactive
[19]
  Activity: inactive
[20]
  Activity: inactive
[21]
  Activity: inactive
[22]
  Activity: inactive
[23]
  Activity: inactive
[24]
  Activity: inactive
[25]
  Activity: inactive
[26]
  Activity: Not Active
[27]
  Activity: inactive

## C=C1CC[C@]2(OC1)O[C@H]1C[C@H]3[C@@H]4CC[C@H]5C[C@@H](O)C[C@@H](O[C@@H]6O[C@H](C)[C@H](O)[C@H](O)[C@H]6O)[C@]5(C)[C@H]4CC[C@]3(C)[C@H]1[C@@H]2C
[1]
  Activity: inactive
[28]
  MIC75: 5.4 µM (≈ 3.11 µg/mL)
[4]
  Activity: inactive
[5]
  Activity: inactive
[29]
  Activity: inactive
[6]
  Activity: inactive
[7]
  Activity: inactive
[8]
  Activity: inactive
[9]
  Activity: inactive
[10]
  Activity: inactive
[12]
  Activity: inactive
[30]
  Activity: inactive
[31]
  MIC75: 5.4 µM (≈ 3.11 µg/mL)
[14]
  Activity: inactive
[32]
  IC50: 23.9 µM
[15]
  Activity: inactive
[16]
  Ratio IC50: 3 - 11
[17]
  Activity: inactive
[33]
  MIC75: 21.7 µM (≈ 12.5 µg/mL)
[34]
  Activity: inactive
[35]
  IC50: 4.2 µM
[19]
  Activity: inactive
[20]
  Activity: inactive
[21]
  Activity: inactive
[22]
  Activity: inactive
[36]
  Activity: inactive
[23]
  Activity: inactive
[24]
  Activity: inactive
[25]
  Activity: inactive
[37]
  MIC75: 21.7 µM (≈ 12.5 µg/mL)
[27]
  Activity: inactive

## C[C@@H]1CC[C@]2(OC1)O[C@H]1C[C@H]3[C@@H]4CC[C@H]5C[C@@H](O)C[C@@H](O[C@@H]6O[C@H](C)[C@H](O)[C@H](O)[C@H]6O)[C@]5(C)[C@H]4CC[C@]3(C)[C@H]1[C@@H]2C
[1]
  Activity: inactive
[38]
  MBC: 43.2 µM (≈ 25 µg/mL)
[28]
  MIC75: 21.6 µM (≈ 12.5 µg/mL)
[5]
  Activity: inactive
[6]
  Activity: inactive
[39]
  MBC: 21.6 µM (≈ 12.5 µg/mL)
[10]
  Activity: inactive
[12]
  Activity: inactive
[40]
  MBC: 43.2 µM (≈ 25 µg/mL)
[31]
  MIC75: 21.6 µM (≈ 12.5 µg/mL)
[14]
  Activity: inactive
[32]
  IC50: 18.2 µM
[15]
  Activity: inactive
[16]
  Ratio IC50: 3 - 11
[17]
  Activity: inactive
[33]
  MIC75: 21.6 µM (≈ 12.5 µg/mL)
[35]
  IC50: 4.3 µM
[19]
  Activity: inactive
[20]
  Activity: inactive
[21]
  Activity: inactive
[22]
  Activity: inactive
[23]
  Activity: inactive
[24]
  Activity: inactive
[41]
  MBC: 21.6 µM (≈ 12.5 µg/mL)
[25]
  Activity: inactive
[37]
  MIC75: 21.6 µM (≈ 12.5 µg/mL)
[27]
  Activity: inactive

## C[C@@H]1CC[C@]2(OC1)O[C@H]1C[C@H]3[C@@H]4CC[C@H]5C[C@@H](O)C[C@@H](O[C@@H]6OC[C@H](O)[C@H](O)[C@H]6O)[C@]5(C)[C@H]4CC[C@]3(C)[C@H]1[C@@H]2C
[1]
  Activity: inactive
[2]
  Activity: inactive
[3]
  Activity: inactive
[4]
  Activity: inactive
[5]
  Activity: inactive
[6]
  Activity: inactive
[7]
  Activity: inactive
[8]
  Activity: inactive
[9]
  Activity: inactive
[10]
  Activity: inactive
[11]
  Activity: inactive
[12]
  Activity: inactive
[13]
  Activity: inactive
[14]
  Activity: inactive
[15]
  Activity: inactive
[16]
  Ratio IC50: 3 - 11
[17]
  Activity: inactive
[18]
  Activity: inactive
[19]
  Activity: inactive
[20]
  Activity: inactive
[21]
  Activity: inactive
[22]
  Activity: inactive
[23]
  Activity: inactive
[24]
  Activity: inactive
[25]
  Activity: inactive
[26]
  Activity: Not Active
[27]
  Activity: inactive
